The target of assay [1] is T1, Antigen 85C (Ag85C) (Mycobacterium tuberculosis, UniProt P9WQN9). The experiment in a line: resorufin butyrate fluorometric assay dose-dependence. Format: biochemical.
Assay [2] concerns the target T1, Antigen 85C (Ag85C). In words: peptide mass fingerprinting of tryptic peptides. The format is biochemical.

T1 sequence (P9WQN9 46-340): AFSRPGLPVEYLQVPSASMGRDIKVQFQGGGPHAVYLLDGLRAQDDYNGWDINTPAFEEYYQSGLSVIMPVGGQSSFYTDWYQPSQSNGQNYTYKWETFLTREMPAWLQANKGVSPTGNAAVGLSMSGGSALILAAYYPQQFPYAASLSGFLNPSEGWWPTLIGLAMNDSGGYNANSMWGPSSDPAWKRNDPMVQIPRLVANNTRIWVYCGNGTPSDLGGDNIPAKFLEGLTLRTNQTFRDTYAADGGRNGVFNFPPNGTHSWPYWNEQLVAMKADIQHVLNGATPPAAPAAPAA

The Ki is a dissociation constant, usually derived from enzyme kinetics or from competition with a known ligand. On Antigen 85C (Ag85C) [1], `O=c1c2ccccc2[se]n1-c1ccccc1` [EBS, ebselen] displayed a Ki of 63 nM.
Take `NC(=O)CI` [IAA, iodoacetamide]: the “peptide mass fingerprinting of tryptic peptides (MALDI-MS); activity loss in res” value on Antigen 85C (Ag85C) [2] is on record as 51.2 mM.

These data come from paper PMC4049535 (Nature communications, 2013).
